# Patent EP0039646A1, “1,4-Benzodioxines, processes for their preparation and their use in therapy” (RIOM LABORATOIRES- C.E.R.M. (Société Anonyme), priority 1980, dated 1981)
# How the values were obtained:
# [1] = system: Récepteurs adrénergiques α; assay: Interference with the contraction of isolated rat vas deferens caused by cumulative doses of noradrenaline
# Excerpt: (§1) L'activité pharmacologique des composés de l'invention a été révélée par recherche d'une interférence avec les récepteurs adrénergiques β1, β2 et α in vitro, et confirmée in vivo par les effets antihypertenseurs observés après administration desdits composés chez le rat spontanément hypertendu anesthésié.
# (§2) Les essais effectués in vitro correspondent aux protocoles résumés ci-après : • - Récepteurs adrénergiques β1 : on recherche l'antagonisme de l'effet inotrope positif de l'isopré- naline sur les récepteurs β1 de l'oreillette gauche de cobaye stimulée électriquement. • - Récepteurs adrénergiques 6 2 : on recherche l'antagonisme des effets bronchodilatateurs de l'iso- prénaline sur les récepteurs β2 du muscle trachéal de cobaye. • - Récepteurs adrénergiques α : on étudie l'interférence des composés de l'invention sur la contraction du vas déferens isolé du rat, provoquée par des doses cumulatives de noradrénaline.
# (§3) Les résultats exprimés par les paramètres usuels de pharmacologie moléculaire, selon les critères utilisés par Van Rossum [Arch. Int.
# [2] = system: rat spontanément hypertendu anesthésié; assay: Antihypertensive effect in anaesthetised spontaneously hypertensive rats, carotid arterial pressure after i.v. injection; assay type: in vivo
# Method: Les essais in vivo ont été effectués chez des rats mâles (S.H.R. - I.F.F.A.) conformément au protocole résumé ci-après :
# Après anesthésie au pentobarbital, on a disposé un cathéter au niveau de l'artère carotide pour enregistrer la pression artérielle, et un cathéter au niveau d'une veine jugulaire pour permettre les injections des composés de l'invention mis en solution dans 0,5 ml de PEG 200 (polyéthylène glycol). La durée de l'injection était de 1 minute.
# [3] = molecular target: T1, récepteurs β1 (Cavia porcellus, UniProt H0W3H1); assay: Antagonism of the positive inotropic effect of isoprenaline on electrically stimulated guinea pig left atrium; parameters: species or system cobaye
# T1 construct: sur les récepteurs β1 de l'oreillette gauche de cobaye stimulée électriquement; from tissue; host or cells: isolated guinea pig left atrium, electrically stimulated
# Excerpt: as §1, §2, §3
# [4] = molecular target: T2, récepteurs β2 (Cavia porcellus, UniProt Q8K4Z4); assay: Antagonism of the bronchodilator effects of isoprenaline on guinea pig tracheal muscle; parameters: species or system cobaye
# T2 construct: sur les récepteurs β2 du muscle trachéal de cobaye; from tissue; host or cells: guinea pig tracheal muscle
# Excerpt: as §1, §2, §3
# [5] = Acute oral toxicity in mice; settings: mouse, in vivo, voie orale, souris, read-out: toxicité aiguë
# Method: Ces résultats montrent en particulier le grand intérêt du composé n° 2 qui présente un antagonisme très sélectif du type dualiste vis-à-vis des récepteurs β adrénergiques et fait preuve d'une remarquable activité in vivo chez le rat spontanément hypertendu anesthésié. Il a d'autre part été possible d'évaluer à 120 mg.kg-^1 la toxicité aiguë du composé n° 2 par voie orale chez la souris.
# T1 sequence (H0W3H1 1-470): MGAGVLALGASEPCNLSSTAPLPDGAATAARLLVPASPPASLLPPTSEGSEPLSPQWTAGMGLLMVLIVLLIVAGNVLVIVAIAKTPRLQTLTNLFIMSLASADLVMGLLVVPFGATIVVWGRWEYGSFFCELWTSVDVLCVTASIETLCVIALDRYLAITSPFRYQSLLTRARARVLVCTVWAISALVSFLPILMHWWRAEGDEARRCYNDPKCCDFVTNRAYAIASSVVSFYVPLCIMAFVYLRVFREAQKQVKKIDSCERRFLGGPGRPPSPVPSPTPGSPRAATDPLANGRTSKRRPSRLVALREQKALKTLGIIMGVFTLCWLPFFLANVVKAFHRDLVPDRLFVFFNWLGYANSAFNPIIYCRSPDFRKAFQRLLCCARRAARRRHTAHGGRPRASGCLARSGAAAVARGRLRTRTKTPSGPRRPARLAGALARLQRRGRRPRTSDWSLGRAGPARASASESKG
# T2 sequence (Q8K4Z4 whole entry): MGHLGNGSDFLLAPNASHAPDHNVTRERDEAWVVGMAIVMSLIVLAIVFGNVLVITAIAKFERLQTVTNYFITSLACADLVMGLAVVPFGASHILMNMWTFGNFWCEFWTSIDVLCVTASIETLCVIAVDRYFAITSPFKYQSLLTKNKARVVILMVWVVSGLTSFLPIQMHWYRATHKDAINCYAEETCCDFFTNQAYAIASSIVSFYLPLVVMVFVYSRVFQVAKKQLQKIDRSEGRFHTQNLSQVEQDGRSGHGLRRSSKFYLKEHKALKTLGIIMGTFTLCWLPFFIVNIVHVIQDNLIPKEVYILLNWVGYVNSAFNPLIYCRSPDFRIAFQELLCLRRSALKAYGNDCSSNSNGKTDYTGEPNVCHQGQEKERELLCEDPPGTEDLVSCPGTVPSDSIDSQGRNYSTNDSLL
action sur les récepteurs β1 ([3]; 10^-4 M/1),SMILES,Récepteurs α ([1]; noradrenaline),"durée de l'effet antihypertenseur ([2]; dose 20 mg.kg^-1, jugular vein injection in PEG 200, male SHR rats under pentobarbital) [min]",Récepteurs β2 [4],LD50 [5] [mg/kg],potentialisation des effets de la noradrénaline ([1]; dose 10^-4 M/1) [%],"durée de l'effet antihypertenseur ([2]; dose 2,5 mg.kg^-1, jugular vein injection in PEG 200, male SHR rats under pentobarbital) [min]","pD'2 ([3]; Récepteurs β1, guinea pig left atrium, isoprenaline, Van Rossum criteria)","Kb ([3]; Récepteurs β1, guinea pig left atrium, isoprenaline, Van Rossum criteria, read-out: pA2 (converted)) [nM]"
très faiblement compétitive,"OC(CN1CCN(c2cccc(C(F)(F)F)c2)CC1)C1=COc2ccccc2O1 (stereo not shown) [exemple 1, 2-méthanoloα-[4-(3-trifluoromethylphenyl)piperazinyl-1] methyl benzo (1,4) dioxine]",inactif,20,inactif,,,,,
,"COc1ccccc1N1CCN(CC(O)C2=COc3ccccc3O2)CC1 (stereo not shown) [exemple 2, 2-méthanolα-[4-(2-methoxyphenyl)piperazinyl-1] methyl benzo (1,4) dioxine]",,,inactif,120,180,> 45,"4,84",912
